Reference: patent US20240059915A1, “COLOR-CHANGE INK” (Société BIC, priority 2020, published 2024)

Assay: Solubility of Acid Blue 93 in several solvents
Assay type: physicochemical
Experimental: The solubility of Acid Blue 93, a water-soluble pH-sensitive triarylmethane dye, was determined by stirring 5 wt.-%0 of the dye in 95 wt.-%0 of the solvent. The following results reported in below Table 1 were obtained:
This is surprising since these water-soluble dyes are commonly known to be insoluble in organic solvents, as also seen in the above comparative solvents. In these comparative solvents, it can be observed that the solvent is not colored and that the dye remains in the form of particles and precipitates at the bottom of the recipient.

Solubility (5 wt.-% dye stirred in 95 wt.-% 1,2-propanediol): Soluble | Solubility (5 wt.-% dye stirred in 95 wt.-% 1-phenoxy-2-propanol): Insoluble | Solubility (5 wt.-% dye stirred in 95 wt.-% 1-phenoxy-ethanol): Insoluble | Solubility (5 wt.-% dye stirred in 95 wt.-% Carbitol (CAS 111-90-0)): Insoluble | Solubility (5 wt.-% dye stirred in 95 wt.-% benzylic alcohol): Insoluble | Solubility (5 wt.-% dye stirred in 95 wt.-% cyrene): Insoluble | Solubility (5 wt.-% dye stirred in 95 wt.-% diethyleneglycol): Soluble | Solubility (5 wt.-% dye stirred in 95 wt.-% dimethylsulfoxide): Soluble | Solubility (5 wt.-% dye stirred in 95 wt.-% dipropylene glycol): Insoluble | Solubility (5 wt.-% dye stirred in 95 wt.-% monoethyleneglycol): Soluble
SMILES: O=S(=O)([O-])c1ccc(N=C2C=CC(=C(c3ccc(Nc4ccc(S(=O)(=O)[O-])cc4)cc3)c3ccc(Nc4ccc(S(=O)(=O)O)cc4)cc3)C=C2)cc1.[Na+].[Na+] [Acid Blue 93]
